Measurements taken from the CheMixHub viscosity set.
± gives the uncertainty stated by the source.

Test: xn = mol fraction of the nth substance listed

C=C(C)C(=O)OCCO + O=C1CCCCC1
viscosity [mPa·s], 101 kPa
Conditions	x2 = 0.1	x2 = 0.2	x2 = 0.3	x2 = 0.4	x2 = 0.5	x2 = 0.6	x2 = 0.6999	x2 = 0.8	x2 = 0.9
298.15 K	5.035 ± 0.23	4.22 ± 0.19	3.579 ± 0.17	3.213 ± 0.15	2.928 ± 0.14	2.661 ± 0.12	2.319 ± 0.11	2.089 ± 0.098	2.06 ± 0.096
308.15 K	3.747 ± 0.17	3.184 ± 0.15	2.768 ± 0.13	2.512 ± 0.12	2.282 ± 0.11	2.045 ± 0.096	1.856 ± 0.088	1.707 ± 0.081	1.695 ± 0.08
318.15 K	2.881 ± 0.14	2.474 ± 0.12	2.2 ± 0.1	2.012 ± 0.095	1.853 ± 0.088	1.678 ± 0.08	1.54 ± 0.074	1.439 ± 0.069	1.421 ± 0.068

CCOCCO + O=C1CCCCC1
298.15 K, 101 kPa
Conditions	viscosity [mPa·s]
x2 = 0.0926	1.684 ± 0.041
x2 = 0.1867	1.587 ± 0.036
x2 = 0.2824	1.529 ± 0.032
x2 = 0.3797	1.494 ± 0.028
x2 = 0.4787	1.469 ± 0.025
x2 = 0.5793	1.472 ± 0.023
x2 = 0.6818	1.506 ± 0.021
x2 = 0.786	1.564 ± 0.019
x2 = 0.892	1.691 ± 0.018

CCOCCO + O=C1CCCO1
303.15 K, 101.33 kPa
Conditions	viscosity [mPa·s]
x1 = 0.0345	1.722 ± 0.028
x1 = 0.0509	1.708 ± 0.028
x1 = 0.0767	1.687 ± 0.027
x1 = 0.1125	1.658 ± 0.027
x1 = 0.2033	1.603 ± 0.026
x1 = 0.3137	1.561 ± 0.025
x1 = 0.4404	1.544 ± 0.025
x1 = 0.5421	1.538 ± 0.025
x1 = 0.6504	1.535 ± 0.024
x1 = 0.8807	1.541 ± 0.024
x1 = 0.9372	1.538 ± 0.024
x1 = 0.9693	1.553 ± 0.025

CNC(C)=O + O=C1CCCO1
viscosity [mPa·s], 101 kPa
Conditions	x1 = 0.0549	x1 = 0.1816	x1 = 0.2715	x1 = 0.3602	x1 = 0.4477	x1 = 0.5352	x1 = 0.6411	x1 = 0.7239	x1 = 0.9033
303.15 K	1.516 ± 0.11	1.586 ± 0.11	1.642 ± 0.12	1.719 ± 0.12	1.82 ± 0.13	1.99 ± 0.14	2.215 ± 0.15	2.45 ± 0.17	3.147 ± 0.21
308.15 K	1.408 ± 0.1	1.452 ± 0.1	1.51 ± 0.11	1.572 ± 0.11	1.662 ± 0.12	1.78 ± 0.12	1.979 ± 0.14	2.178 ± 0.15	2.799 ± 0.19
313.15 K	1.338 ± 0.096	1.343 ± 0.096	1.393 ± 0.099	1.447 ± 0.1	1.521 ± 0.11	1.626 ± 0.11	1.805 ± 0.13	1.967 ± 0.14	2.515 ± 0.17
318.15 K	1.213 ± 0.088	1.247 ± 0.09	1.281 ± 0.092	1.334 ± 0.096	1.403 ± 0.1	1.514 ± 0.11	1.665 ± 0.12	1.8 ± 0.13	2.226 ± 0.15

Oc1ccc(Cl)cc1 + O=Cc1ccccc1
308.15 K, 101.33 kPa
Conditions	viscosity [mPa·s]
x2 = 0.11	5.75 ± 0.092
x2 = 0.304	3.8 ± 0.058
x2 = 0.485	3.01 ± 0.044
x2 = 0.56	2.495 ± 0.036
x2 = 0.62	2.2 ± 0.031
x2 = 0.728	1.79 ± 0.024
x2 = 0.907	1.388 ± 0.018

CCOCCO + O=S1(=O)CCCC1
303.15 K
Conditions	viscosity [mPa·s]
101 kPa, x2 = 0.0459	1.145 ± 0.013
101 kPa, x2 = 0.1045	0.887 ± 0.011
101 kPa, x2 = 0.1957	0.692 ± 0.008
101 kPa, x2 = 0.2957	0.877 ± 0.01
101 kPa, x2 = 0.3504	1.721 ± 0.02
101 kPa, x2 = 0.3966	2.176 ± 0.025
101 kPa, x2 = 0.4471	2.684 ± 0.031
101 kPa, x2 = 0.4987	3.644 ± 0.042
101 kPa, x2 = 0.5514	4.636 ± 0.053
101 kPa, x2 = 0.5999	5.66 ± 0.064
101 kPa, x2 = 0.6984	6.898 ± 0.077
101 kPa, x2 = 0.8002	8.224 ± 0.092
101 kPa, x2 = 0.8997	9.136 ± 0.1
101.33 kPa, x1 = 0.042	8.909 ± 0.13
101.33 kPa, x1 = 0.0712	7.997 ± 0.12
101.33 kPa, x1 = 0.109	7.117 ± 0.11
101.33 kPa, x1 = 0.1849	5.742 ± 0.088
101.33 kPa, x1 = 0.2899	4.443 ± 0.069
101.33 kPa, x1 = 0.3942	3.612 ± 0.056
101.33 kPa, x1 = 0.5561	2.759 ± 0.043
101.33 kPa, x1 = 0.6236	2.472 ± 0.038
101.33 kPa, x1 = 0.6586	2.349 ± 0.036
101.33 kPa, x1 = 0.7385	2.108 ± 0.033
101.33 kPa, x1 = 0.7622	2.027 ± 0.032
101.33 kPa, x1 = 0.8406	1.843 ± 0.029
101.33 kPa, x1 = 0.9162	1.688 ± 0.026
101.33 kPa, x1 = 0.9539	1.619 ± 0.025

CCOCCO + O=[N+]([O-])c1ccccc1
298.15 K, 101 kPa
Conditions	viscosity [mPa·s]
x2 = 0.0476	1.852 ± 0.021
x2 = 0.1095	1.858 ± 0.021
x2 = 0.2104	1.873 ± 0.02
x2 = 0.3134	1.893 ± 0.019
x2 = 0.4103	1.916 ± 0.019
x2 = 0.4566	1.925 ± 0.019
x2 = 0.5011	1.932 ± 0.018
x2 = 0.5459	1.936 ± 0.018
x2 = 0.6004	1.94 ± 0.018
x2 = 0.7008	1.937 ± 0.017
x2 = 0.8017	1.921 ± 0.016
x2 = 0.8989	1.887 ± 0.015
x2 = 0.9525	1.853 ± 0.014

Cc1cccc(Cl)c1 + OC1CCCCC1
303.15 K, 101 kPa
Conditions	viscosity [mPa·s]
x2 = 0.1126	5.006 ± 0.6
x2 = 0.222	9.158 ± 1.1
x2 = 0.3285	13.26 ± 1.6
x2 = 0.4321	17.37 ± 2.1
x2 = 0.533	21.44 ± 2.6
x2 = 0.6313	25.48 ± 3.1
x2 = 0.727	29.41 ± 3.6
x2 = 0.8203	33.31 ± 4
x2 = 0.9113	37.2 ± 4.5

CC(C)CCO + OCC(O)CO
viscosity [mPa·s], 100 kPa
Conditions	x1 = 0.0692	x1 = 0.1425	x1 = 0.2195	x1 = 0.3027	x1 = 0.3954	x1 = 0.498	x1 = 0.6042	x1 = 0.7235	x1 = 0.8535
298.15 K	879.2 ± 43	810.7 ± 38	738.6 ± 34	660.6 ± 29	573.7 ± 24	477.4 ± 18	377.4 ± 13	265 ± 7.6	142.2 ± 2.6
303.15 K	583.7 ± 24	540.5 ± 22	494.2 ± 19	443.9 ± 16	387.3 ± 13	323.9 ± 10	257.5 ± 7.2	181.7 ± 4.1	97.82 ± 1.2
308.15 K	389.9 ± 14	363 ± 12	333.5 ± 11	301.1 ± 9.2	263.5 ± 7.5	220.7 ± 5.6	175.6 ± 3.8	123.8 ± 2	67.02 ± 0.49

CC(C)CCO + OCCCCO
viscosity [mPa·s], 100 kPa
Conditions	x1 = 0.0812	x1 = 0.1634	x1 = 0.2525	x1 = 0.3428	x1 = 0.4555	x1 = 0.5459	x1 = 0.6484	x1 = 0.7582	x1 = 0.8761
298.15 K	67.45 ± 0.49	62.1 ± 0.39	56.19 ± 0.31	50.09 ± 0.26	42.34 ± 0.28	36.04 ± 0.23	28.79 ± 0.19	20.97 ± 0.14	12.53 ± 0.1
303.15 K	53.11 ± 0.28	49.29 ± 0.32	45.07 ± 0.29	40.5 ± 0.26	34.55 ± 0.23	29.64 ± 0.2	23.86 ± 0.16	17.53 ± 0.13	10.61 ± 0.09
308.15 K	42.18 ± 0.28	39.46 ± 0.26	36.34 ± 0.24	32.86 ± 0.21	28.33 ± 0.19	24.49 ± 0.17	19.94 ± 0.14	14.75 ± 0.11	9.039 ± 0.083

CC(C)CCO + OCCCO
viscosity [mPa·s], 100 kPa
Conditions	x1 = 0.0679	x1 = 0.1388	x1 = 0.218	x1 = 0.3009	x1 = 0.4084	x1 = 0.4979	x1 = 0.6034	x1 = 0.7212	x1 = 0.8537
298.15 K	37.92 ± 0.25	35.56 ± 0.23	32.86 ± 0.21	29.98 ± 0.2	26.12 ± 0.17	22.84 ± 0.16	18.89 ± 0.13	14.42 ± 0.11	9.305 ± 0.084
303.15 K	30.13 ± 0.2	28.24 ± 0.19	26.14 ± 0.17	23.83 ± 0.16	20.79 ± 0.14	18.2 ± 0.13	15.09 ± 0.11	11.57 ± 0.094	7.532 ± 0.076
308.15 K	25.86 ± 0.17	24.27 ± 0.16	22.55 ± 0.15	20.66 ± 0.14	18.08 ± 0.13	15.91 ± 0.12	13.3 ± 0.1	10.25 ± 0.088	6.745 ± 0.073
